The test system of the assay is luteinising hormone and follicle-stimulating hormone genes in the pituitary gland. Kind of assay: Gene expression (HGU133A) in the pituitary gland of ovariectomized monkeys treated with estradiol, tamoxifen or raloxifene. Type of assay: in vivo, cynomolgus monkeys (Macaca fascicularis). The settings on record: for Fold change relative to OVX: Follicle stimulating hormone / Fold change relative to OVX: Luteinising hormone / Fold expression change to SHAM control: Follicle stimulating hormone / Fold expression change to SHAM control: Luteinising hormone: pituitary gland. As to the method: Female sexually mature cynomolgus monkeys (Macaca fascicularis obtained from R. C. Hartelust B V, Tilburg, the Netherlands) approximately 48 months old were subjected to surgery (ovarectomy [OVX] or sham) 10 weeks prior to treatment and were treated for parasitic arthropods and helminthes, subjected to a tuberculin testing, and acclimated to the treatment facility for at least 14 days before beginning treatment.
Surgical Procedures. The ovariectomized cynomolgus monkey (Macaca fascicularis), which has been validated as a useful model predictive of outcomes in human clinical trials of estrogen and SERMs (Cline J M et al., Toxicol Pathol. 29:84-90 (2001)), was used as a model of estrogen deficiency. Animals were ovariectomized approximately 10 weeks before the first day of treatment. The ovaries were removed following anesthesia with a combined intramuscular injection of xylazine (Rompun®: 0.4 mL/animal, Bayer Pharma Division Sante Animale, Puteaux, France) and ketamine hydrochloride (Imalgéne®: 0.6 mL/kg, Mérial, Lyon, France). Sham-operated animals were subjected to the same surgical procedure, except for the removal of ovaries.
Ovariectomized and sham-operated animals were divided into groups of 4 and treated as outlined below.
Gene expression was determined in the pituitary and uterus at the end of drug therapy. Tissues to be analyzed (pituitary glands and uterus) were excised, snap frozen in liquid nitrogen, and stored at −80° C. until RNA extraction was performed.
Total RNA was obtained by acid guanidinium isothiocyanate-phenol-chloroform extraction (Trizol; Invitrogen Life Technologies, San Diego, Calif., USA) and purified on an affinity resin column (RNeasy; Qiagen, Hilden, Germany) according to manufacturer instructions. […] Lockhart D J, Dong H, Byrne M C, et al. Nat. Biotechnol. 1996; 14:1675-1680.
Previous studies have proven the validity of cross-species DNA chip analysis (Hacia J G et al. Nat Genet. 18:155-158 (1998)), therefore, the human gene expression probe arrays HGU133A (Affymetrix, Santa Clara, Calif., USA) containing 22,283 probe sets interrogating primarily annotated human genes were used. One GeneChip was used per tissue, per animal. The resulting image files (.dat files) were processed using the Microarray Analysis Suite 5 (MAS5) software (Affymetrix, Inc.). Tab-delimited files were obtained containing data regarding signal intensity (Signal) and categorical expression level measurement (Absolute Call).

Where only a bound is given, the exact number is not on record here.

Turning to `C#C[C@]1(O)CC[C@H]2[C@@H]3CCc4cc(O)ccc4[C@H]3CC[C@@]21C` [EE], the “Fold change relative to OVX: Follicle stimulating hormone” value is listed as below 0.1 fold and the “Fold change relative to OVX: Luteinising hormone” value is 0.1 fold. Further, where the note is “OVX monkeys”, the “Fold expression change to SHAM control: Follicle stimulating hormone” value was 0.1 fold and the “Fold expression change to SHAM control: Luteinising hormone” value came out at 0.5 fold.
As for `O=C(c1ccc(OCCN2CCCCC2)cc1)c1c(-c2ccc(O)cc2)sc2cc(O)ccc12` [raloxifene], the “Fold change relative to OVX: Follicle stimulating hormone” value is recorded as 0.8 fold and the “Fold change relative to OVX: Luteinising hormone” value amounted to 1.3 fold. Also, for the setting “OVX monkeys”, the “Fold expression change to SHAM control: Follicle stimulating hormone” value was found to be 5.2 fold and the “Fold expression change to SHAM control: Luteinising hormone” value turned out to be 9.8 fold.
As for `CC/C(=C(\c1ccccc1)c1ccc(OCCN(C)C)cc1)c1ccccc1` [tamoxifen], the “Fold change relative to OVX: Follicle stimulating hormone” value is reported as 0.4 fold and the “Fold change relative to OVX: Luteinising hormone” value was 0.4 fold. Further, under “OVX monkeys”, the “Decrease of FSH transcripts in the pituitary gland” value came to 2.7 fold, the “Decrease of LH transcripts in the pituitary gland” value worked out at 2.4 fold, the “Fold expression change to SHAM control: Follicle stimulating hormone” value is recorded as 2.3 fold and the “Fold expression change to SHAM control: Luteinising hormone” value is 3.2 fold.

For the origin of these results see patent US20130040882A1, “USE OF FIBROBLAST GROWTH FACTOR FRAGMENTS” (NOVARTIS AG, priority 2003, published 2013).
